In US20140045746A1 (Merck Sharp & Dohme Corp., priority 2012, published 2014) one finds EC50 data, which are given here for 22 compounds.

Assay [1] deals with T1, hGPR40 (Homo sapiens, UniProt O14842). As to the kind of experiment: GPR40 FLIPR assay (agonist-induced calcium mobilization).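 Also: calcium mobilization in the cells read as fluorescence of fluo-4 AM loaded cells on FLIPR after compound addition, cells preloaded with dye 100 min at room temperature.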 The class given is cell-based. Set-up: expressed in transfected cells; host or cells: CHO cells stably expressing NFAT BLA (beta-lactamase). The settings on record: GPR40/CHO NFAT BLA cells.
Experimental: Human and mouse GPR40 stable cell-lines were generated in CHO cells stably expressing NFAT BLA (Beta-lactamase). […] The expression plasmids were transfected using lipofectamine (Life Technologies) following manufacturer's instructions. Stable cell-lines were generated following drug selection.
FLIPR (Fluorimetric Imaging Plate Reader, Molecular Devices) assays were performed to measure agonist-induced calcium mobilization of the stable clones. For the FLIPR assay, one day before assay, GPR40/CHO NFAT BLA cells were seeded into black-wall-clear-bottom 384-well plates (Costar) at 1.4×10e4 cells/20 μL medium/well. The cells were incubated with 20 μl/well of the assay buffer (HBSS, 0.1% BSA, 20 mM HEPES, 2.5 mM probenecid, pH 7.4) containing 8 μM fluo-4, AM, 0.08% pluronic acid at room temperature for 100 minutes. Fluorescence output was measured using FLIPR. Compounds were dissolved in DMSO and diluted to desired concentrations with assay buffer. 13.3 μL/well of compound solution was added.
In assay [2] the target is T1, hGPR40. As to the kind of experiment: GPR40 Inositol Phosphate Turnover (IP1) Assay. It is filed as cell-based. Set-up: expressed in transfected cells; host or cells: HEK cells stably expressing the aequorin reporter. Conditions: HEK cells stably expressing human GPR40; 0% serum; read-out: hGPR40 IP1 EC50 (0% serum).

T1 sequence (O14842 whole entry): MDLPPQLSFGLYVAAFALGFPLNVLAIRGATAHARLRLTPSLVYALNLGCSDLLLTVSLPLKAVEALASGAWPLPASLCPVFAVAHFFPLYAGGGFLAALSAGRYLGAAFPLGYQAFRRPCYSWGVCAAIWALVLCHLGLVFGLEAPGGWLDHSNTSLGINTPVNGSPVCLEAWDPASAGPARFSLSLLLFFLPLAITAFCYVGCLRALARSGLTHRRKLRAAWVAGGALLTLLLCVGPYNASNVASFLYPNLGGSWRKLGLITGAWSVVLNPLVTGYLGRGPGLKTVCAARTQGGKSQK

For `O=C(O)[C@H]1[C@@H]2Cc3cc(OCc4cccc(-c5ccc(OCCC6(O)CC6)cc5C(F)(F)F)c4)ncc3[C@@H]21` [Compound 8-6], the EC50 was 0.041 µM in assay [1] and 0.022 µM in assay [2].
For `Cc1nc(OCCCN2CCCC2=O)ccc1-c1ccc(F)c(COc2cc3c(cn2)C2C(C3)C2C(=O)O)c1` (centres unmarked) [Compound 23-15, 3-((2-fluoro-5-(2-methyl-6-(3-(2-oxopyrrolidin-1-yl)propoxy)pyridin-3-yl)benzyl)oxy)-5,5a,6,6a-tetahydrocyclopropa[4,5] cyclopenta[1,2-c]pyridine-6-carboxylic acid], the EC50 in assay [1] was 0.038 µM; in assay [2], 0.027 µM.
In the case of `Cc1nc(N2CCN(S(C)(=O)=O)CC2)ccc1-c1ccc(F)c(COc2cc3c(cn2)[C@H]2[C@@H](C3)[C@@H]2C(=O)O)c1` [Compound 31-13, (5aR,6S,6aS)-3-((2-fluoro-5-(2-methyl-6-(4-(methylsulfonyl)piperazin-1-yl)pyridin-3-yl)benzyl)oxy)-5,5a,6,6a-tetrahydrocyclopropa[4,5]cyclopenta[1,2-c]pyridine-6-carboxylic acid], the EC50 came out at 0.069 µM in assay [1] and 0.032 µM in assay [2].
Regarding `CC(C)(O)CCCOc1cc(C(F)(F)F)c(-c2ccc(F)c(COc3cc4c(cn3)[C@H]3[C@@H](C4)[C@@H]3C(=O)O)c2)cn1` [Compound 21-7, 3-((2-fluoro-5-(6-((4-hydroxy-4-methylpentyl)oxy)-4-(trifluoromethyl)pyridin-3-yl)benzyl)oxy)-5,5a,6,6a-tetrahydrocyclopropa[4,5]cyclopenta[1,2-c]pyridine-6-carboxylic acid], the EC50 in assay [1] is 0.011 µM; in assay [2], 0.0062 µM.
In the same order, the values of `O=C(O)C1C2Cc3cc(OCc4cc(-c5ncccc5C(F)(F)F)ccc4F)ncc3C21` (centres unmarked) [Compound 22-9, 3-((2-fluoro-5-(3-(trifluoromethyl)pyridin-2-yl)benzyl)oxy)-5,5a,6,6a-tetrahydrocyclopropa[4,5] cyclopenta[1,2-c]pyridine-6-carboxylic acid] are 0.095 µM and 0.85 µM.
As for `Cc1c(COc2cc3c(cn2)C2C(C3)C2C(=O)O)cccc1-c1ccccc1C(F)(F)F` (centres unmarked) [Compound 27-6, 3-((2-methyl-2′-(trifluoro-methyl)-[1,1′-biphenyl]-3-yl)methoxy)-5,5a,6,6a-tetrahydrocyclopropa[4,5]-cyclopenta[1,2-c]pyridine-6-carboxylic acid], the EC50 in assay [1] was 0.03 µM; in assay [2], 0.085 µM.
Take `Cc1nc(OCCCS(C)(=O)=O)ccc1-c1ccc(F)c(CNc2cc3c(cn2)C2C(C3)C2C(=O)O)c1` (centres unmarked) [Compound 24-4, 3-((2-fluoro-5-(2-methyl-6-(3-(methylsulfonyl)propoxy)pyridin-3-yl)benzyl)amino)-5,5a,6,6a-tetrahydrocyclopropa[4,5]cyclopenta[1,2-c]pyridine-6-carboxylic acid]: the results for the EC50 in assay [1] and in assay [2] were 0.096 µM and 0.09 µM, respectively.
In the same order, the values of `CS(=O)(=O)CCCOc1cc(OC(F)F)c(-c2ccc(F)c(COc3cc4c(cn3)[C@H]3[C@@H](C4)[C@@H]3C(=O)O)c2)cn1` [Compound 23-17, (5aR,6S,6aS)-3-((5-(4-(difluoro-methoxy)-6-(3-(methylsulfonyl)propoxy)pyridin-3-yl)-2-fluorobenzyl)-oxy)-5,5a,6,6a-tetrahydrocyclopropa [4,5]cyclopenta[1,2-c] pyridine-6-carboxylic acid] are 0.058 µM and 0.082 µM.
In the same order, the values of `Cc1nc(OCCOCC(C)(C)O)ccc1-c1ccc(F)c(COc2cc3c(cn2)[C@H]2[C@@H](C3)[C@@H]2C(=O)O)c1` [Compound 7-8, (5aR,6S,6aS)-3-((2-fluoro-5-(6-(2-(2-hydroxy-2-methylpropoxy)ethoxy)-2-methylpyridin-3-yl)benzyl)oxy)-5,5a,6,6a-tetrahydrocyclopropa[4,5]cyclopenta[1,2-c]pyridine-6-carboxylic acid] are 0.035 µM and 0.032 µM.
In the same order, the values of `Cc1cccc(C)c1-c1ccc(F)c(COc2cc3c(cn2)C2C(C3)C2C(=O)O)n1` (centres unmarked) [Compound 26-7, 3-((6-(2,6-dimethylphenyl)-3-fluoropyridin-2-yl)methoxy)-5,5a,6,6a-tetrahydrocyclopropa[4,5]cyclopenta[1,2-c]pyridine-6-carboxylic acid] are 0.042 µM and 0.12 µM.
Turning to `O=C(O)[C@H]1[C@@H]2Cc3cc(OCc4cc(Oc5ccccc5C(F)(F)F)ccc4F)ncc3[C@@H]21` [Compound 25-2, 4-[2-Fluoro-5-(2-trifluoromethyl-phenoxy)-benzyloxy]-1,1a,6,6a-tetrahydro-3-aza-cyclopropa[a]indene-1-carboxylic acid], the EC50 in assay [1] is 0.035 µM; in assay [2], 0.056 µM.
Take `Cc1nc(N2CC(CS(C)(=O)=O)C2)ccc1-c1ccc(F)c(COc2cc3c(cn2)[C@H]2[C@@H](C3)[C@@H]2C(=O)O)c1` [Compound 31-8]: the EC50 worked out at 0.051 µM in assay [1] and 0.028 µM in assay [2].
As for `CC(C)(O)CCCOc1cc(C(F)(F)F)c(-c2cccc(COc3cc4c(cn3)[C@H]3[C@@H](C4)[C@@H]3C(=O)O)c2)cn1` [Compound 21-8, (5aR,6S,6aS)-3-((3-(6-((4-hydroxy-4-methylpentyl)-oxy)-4-(trifluoromethyl)-pyridin-3-yl)benzyl)oxy)-5,5a,6,6a-tetrahydrocyclo-propa[4,5]cyclopenta [1,2-c]pyridine-6-carboxylic acid], the EC50 stood at 0.015 µM in assay [1] and 0.0062 µM in assay [2].
For `Cc1cc(OCC(O)CO)cc(C)c1-c1ccc(F)c(COc2cc3c(cn2)[C@H]2[C@@H](C3)[C@@H]2C(=O)O)c1` (stereo partly drawn) [Compound 14-4, (5aR,6S,6aS)-3-((4′-(2,3-dihydroxypropoxy)-4-fluoro-2′,6′-dimethyl-[1,1′-biphenyl]-3-yl)methoxy)-5,5a,6,6a-tetrahydrocyclopropa[4,5]cyclopenta[1,2-c]pyridine-6-carboxylic acid] the same measures were 0.032 µM and 0.0062 µM.
In the case of `O=C(O)C1C2Cc3cc(OCc4cc(-c5ccc(C(F)(F)F)cc5)ccc4F)ncc3C21` (centres unmarked) [Compound 22-4, 3-((4-fluoro-4′-(trifluoromethyl)-[1,1′-biphenyl]-3-yl)methoxy)-5,5a,6,6a-tetrahydrocyclo-propa[4,5]cyclopenta[1,2-c]pyridine-6-carboxylic acid], the values for the EC50 in assay [1] and in assay [2] were 0.054 µM and 0.24 µM, respectively.
In the same order, the values of `CCc1nc2ccc(F)c(F)c2n1-c1cccc(COc2cc3c(cn2)[C@H]2[C@@H](C3)[C@@H]2C(=O)O)c1C` [Compound 32-9, (5aR,6S,6aS)-3-((3-(2-ethyl-6,7-difluoro-1H-benzo[d]imidazol-1-yl)-2-methylbenzyl)oxy)-5,5a,6,6a-tetrahydrocyclopropa[4,5]cyclopenta[1,2-c]pyridine-6-carboxylic acid] are 0.03 µM and 0.0049 µM.
In the case of `CS(=O)(=O)CCCOc1cc(F)c(-c2ccc(F)c(COc3cc4c(cn3)[C@H]3[C@@H](C4)[C@@H]3C(=O)O)c2)c(C(F)(F)F)c1` [Compound 10-5, (5aR,6S,6aS)-3-((2′,4-difluoro-4′-(3-(methylsulfonyl)propoxy)-6′-(trifluoromethyl)-[1,1′-biphenyl]-3-yl)methoxy)-5,5a,6,6a-tetrahydrocyclopropa[4,5]cyclopenta[1,2-c]pyridine-6-carboxylic acid], the results for the EC50 in assay [1] and in assay [2] were 0.018 µM and 0.012 µM, respectively.
For `Cc1nc(OCCC(C)(C)O)ccc1-c1cccc(COc2cc3c(cn2)[C@H]2[C@@H](C3)[C@@H]2C(=O)O)c1` [Compound 7-4, (5aR,6S,6aS)-3-((3-(6-(3-hydroxy-3-methylbutoxy)-2-methylpyridin-3-yl)benzyl)oxy)-5,5a,6,6a-tetrahydrocyclopropa[4,5]cyclopenta[1,2-c]pyridine-6-carboxylic acid], the EC50 was determined as 0.042 µM in assay [1] and 0.028 µM in assay [2].
For the compound `Cc1cc(OCCC2CC(F)(F)C2)cc(C)c1-c1ccc(F)c(COc2cc3c(cn2)[C@H]2[C@@H](C3)[C@@H]2C(=O)O)c1` [Compound 16-9, (5aR,6S,6aS)-3-((4′-(2-(3,3-difluorocyclobutyl)ethoxy)-4-fluoro-2′,6′-dimethyl-[1,1′-biphenyl]-3-yl)methoxy)-5,5a,6,6a-tetrahydro-cyclopropa[4,5] cyclopenta[1,2-c] pyridine-6-carboxylic acid], the EC50 in assay [1] came out at 0.019 µM; in assay [2], 0.045 µM.
On to `Cc1cc(OCCC2(O)CC2)cc(C)c1-c1cccc(COc2cc3c(cn2)[C@H]2[C@@H](C3)[C@@H]2C(=O)O)c1` [Compound 4-5, (5aR,6S,6aS)-3-((4′-(2-(1-hydroxycyclopropyl)ethoxy)-2′,6′-dimethyl-[1,1′-biphenyl]-3-yl)methoxy)-5,5a,6,6a-tetrahydrocyclopropa[4,5]cyclopenta[1,2-c]pyridine-6-carboxylic acid], for which the EC50 in assay [1] was 0.027 µM; in assay [2], 0.0086 µM.
`Cc1cc(CCCC(C)(C)O)cc(C)c1-c1ccc(F)c(COc2cc3c(cn2)[C@H]2[C@@H](C3)[C@@H]2C(=O)O)c1` [Compound 19-19, (5aR,6S,6aS)-3-((4-fluoro-4′-(4-hydroxy-4-methylpentyl)-2′,6′-dimethyl-[1,1′-biphenyl]-3-yl)methoxy)-5,5a,6,6a-tetrahydrocyclopropa[4,5]cyclopenta[1,2-c]pyridine-6-carboxylic acid]: the EC50 in assay [1] was determined as 0.036 µM; in assay [2], 0.0055 µM.
With `Cc1nc(OCCCS(C)(=O)=O)nc(C)c1-c1ccc(F)c(COc2cc3c(cn2)C2C(C3)C2C(=O)O)c1` (centres unmarked) [Compound 23-13, 3-((5-(4,6-dimethyl-2-(3-(methylsulfonyl)propoxy)pyrimidin-5-yl)-2-fluorobenzyl)-oxy)-5,5a,6,6a-tetrahydrocyclopropa [4,5]cyclopenta[1,2-c]pyridine-6-carboxylic acid], the EC50 in assay [1] turned out to be 0.077 µM; in assay [2] it was 0.11 µM.
